The source of these data is patent US7662364B2, “Drug for hyperphospheremia and its preparative method” (priority 2006, dated 2010).

The conditions of this assay: for Removing phosphate %: 0.5 g in 100 ml, 37° C. How it is done: Lanthanum carbonate 0.5 g was added to 0.85% NaCl solution 100 ml (pH 6.8) and 0.85% NaCl solution 100 ml (pH7.8), respectively. Then, sufficient quantities of Na2HPO4 were added to the two solutions, stirred at 37° C. Filtered solutions were obtained at 10 min, 30 min, 40 min and 60 min, respectively. Phosphate content was determined and the percentage of removing phosphate was computed.

The structures appear in SMILES notation. Where two headings read alike, the source gives them in different places.

For `O=C([O-])[O-].O=C([O-])[O-].O=C([O-])[O-].[La+3].[La+3]` [Lanthanum carbonate], the Removing phosphate % by setting is: (0.85% NaCl pH 6.8, 10 min) 6.7%; (0.85% NaCl pH 6.8, 30 min) 13.7%; (0.85% NaCl pH 6.8, 40 min) 16.9%; (0.85% NaCl pH 6.8, 60 min) 20.8%; (0.85% NaCl pH 7.8, 10 min) 1.4%; (0.85% NaCl pH 7.8, 30 min) less than 2.0%. In addition, the Removing phosphate % is less than 2.0% (0.85% NaCl pH 7.8, 40 min) and less than 2.0% (0.85% NaCl pH 7.8, 60 min). Moreover, the “phosphate removal, result in words” value reads like this: (solution whose PH was similar to that of human large intestine (pH 7.8)) “unable to remove phosphate”; (solution whose PH was similar to that of human small intestine (pH 6.8)) “removed less phosphate”.
